Test results from ChEMBL document CHEMBL5214932, “A closer look at N2,6-substituted 1,3,5-triazine-2,4-diamines: Advances in synthesis and biological activities” (Eur J Med Chem, 2022).
Each block holds one molecule with its values, some of them ahead of it.

What was measured:
[1] = biological target: T1, Free fatty acid receptor 1 (Homo sapiens, UniProt O14842); assay: Positive allosteric modulation of GPR40 (unknown origin) at 100 uM assessed as maximum efficacy relative to control; conditions: filed as positive allosteric modulator
[2] = biological target: T1, Free fatty acid receptor 1; assay: Positive allosteric modulation of GPR40 (unknown origin)
[3] = tested on: Human immunodeficiency virus 1; assay: Antiviral activity against wild type HIV1 IIIB assessed as viral growth inhibition measured after 5 days by MTT assay; format: functional, organism-based; conditions: Human immunodeficiency virus 1, IIIB, 120 h
[4] = tested on: Human immunodeficiency virus 1; assay: Antiviral activity against NNRTI resistant HIV1 harboring Leu100IIe mutant infected in human MT4 cells assessed as reduction in virus-induced cytopathic effect measured after 5 days by MTT assay; format: functional, organism-based; conditions: Human immunodeficiency virus 1, MT4, 120 h
[5] = tested on: Human immunodeficiency virus 1; assay: Antiviral activity against NNRTI resistant HIV1 harboring Lys103Asn mutant infected in human MT4 cells assessed as reduction in virus-induced cytopathic effect measured after 5 days by MTT assay; format: functional, organism-based; conditions: Human immunodeficiency virus 1, MT4, 120 h
[6] = tested on: Human immunodeficiency virus 1; assay: Antiviral activity against NNRTI resistant HIV1 harboring Val106Ala mutant infected in human MT4 cells assessed as reduction in virus-induced cytopathic effect measured after 5 days by MTT assay; format: functional, organism-based; conditions: Human immunodeficiency virus 1, MT4, 120 h
[7] = tested on: Human immunodeficiency virus 1; assay: Antiviral activity against NNRTI resistant HIV1 harboring Tyr181Cys mutant infected in human MT4 cells assessed as reduction in virus-induced cytopathic effect measured after 5 days by MTT assay; format: functional, organism-based; conditions: Human immunodeficiency virus 1, MT4, 120 h
[8] = tested on: Human immunodeficiency virus 1; assay: Antiviral activity against NNRTI resistant HIV1 harboring Gly190Ala mutant infected in human MT4 cells assessed as reduction in virus-induced cytopathic effect measured after 5 days by MTT assay; format: functional, organism-based; conditions: Human immunodeficiency virus 1, MT4, 120 h
[9] = tested on: Human immunodeficiency virus 1; assay: Antiviral activity against NNRTI resistant HIV1 LAI infected in human MT4 cells assessed as reduction in virus-induced cytopathic effect measured after 5 days by MTT assay; format: functional, organism-based; conditions: Human immunodeficiency virus 1, LAI, MT4, 120 h
[10] = biological target: 5-hydroxytryptamine receptor 1A (Homo sapiens, UniProt P08908); assay: Displacement of […] from human 5-HT1AR expressed in HEK293 cells by radioligand binding assay; format: cell-based
[11] = biological target: 5-hydroxytryptamine receptor 7 (Homo sapiens, UniProt P34969); assay: Displacement of [3H]-5Carboxyamidotryptamine from human 5-HT7R expressed in HEK293 cells by radioligand binding assay; format: cell-based
D(2) dopamine receptor = D(2) dopamine receptor (Homo sapiens, UniProt P14416); assay: Displacement of [3H]-Raclopride from human dopamine D2 receptor expressed in HEK293 cells by radioligand binding assay; format: cell-based
[12] = biological target: 5-hydroxytryptamine receptor 6 (Homo sapiens, UniProt P50406); assay: Displacement of [3H]-LSD from human 5-HT6R expressed in HEK293 cells assessed as binding constant by radioligand binding assay; format: cell-based
[13] = biological target: T2, Equilibrative nucleoside transporter 1 (Homo sapiens, UniProt Q99808); assay: Inhibition of human ENT1 transfected in nucleoside transporter-deficient pig PK-15 cells assessed as inhibition of [3H]-uridine uptake by liquid scintillation counter analysis; format: cell-based
T2 sequence (Q99808 whole entry): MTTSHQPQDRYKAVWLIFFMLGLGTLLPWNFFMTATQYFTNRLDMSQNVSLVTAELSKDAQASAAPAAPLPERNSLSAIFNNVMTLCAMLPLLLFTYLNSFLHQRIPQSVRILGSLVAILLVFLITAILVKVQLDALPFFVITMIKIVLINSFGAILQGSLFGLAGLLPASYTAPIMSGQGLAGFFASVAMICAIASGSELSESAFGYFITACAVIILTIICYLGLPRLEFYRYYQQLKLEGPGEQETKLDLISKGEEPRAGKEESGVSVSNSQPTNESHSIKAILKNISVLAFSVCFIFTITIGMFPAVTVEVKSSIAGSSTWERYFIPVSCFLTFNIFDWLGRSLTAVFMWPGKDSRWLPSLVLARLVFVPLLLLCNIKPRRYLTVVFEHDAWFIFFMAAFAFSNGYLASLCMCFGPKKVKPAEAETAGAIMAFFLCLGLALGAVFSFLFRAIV

[14] = biological target: T3, Equilibrative nucleoside transporter 2 (Homo sapiens, UniProt Q14542); assay: Inhibition of human ENT2 transfected in nucleoside transporter-deficient pig PK-15 cells assessed as inhibition of [3H]-uridine uptake by liquid scintillation counter analysis; format: cell-based
T3 sequence (Q14542 whole entry): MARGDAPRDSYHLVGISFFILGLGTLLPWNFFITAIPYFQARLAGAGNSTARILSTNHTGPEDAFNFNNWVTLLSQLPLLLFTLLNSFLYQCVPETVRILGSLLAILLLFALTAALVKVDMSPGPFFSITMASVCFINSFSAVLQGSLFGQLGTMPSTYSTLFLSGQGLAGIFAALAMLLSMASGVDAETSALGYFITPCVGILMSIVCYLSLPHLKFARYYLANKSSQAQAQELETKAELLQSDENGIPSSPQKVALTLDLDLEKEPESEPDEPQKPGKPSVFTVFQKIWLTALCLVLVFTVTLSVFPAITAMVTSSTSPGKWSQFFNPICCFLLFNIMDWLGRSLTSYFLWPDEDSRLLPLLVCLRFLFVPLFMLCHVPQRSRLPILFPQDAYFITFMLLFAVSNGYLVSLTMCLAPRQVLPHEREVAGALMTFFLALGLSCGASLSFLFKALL

MDA-MB-231 = assay: Antiproliferative activity against human MDA-MB-231 cells assessed as cell growth inhibition measured after 72 hrs by MTT assay; format: functional, cell-based; conditions: MDA-MB-231, 72 h
SK-BR-3 = assay: Antiproliferative activity against human SK-BR-3 cells assessed as cell growth inhibition measured after 72 hrs by MTT assay; format: functional, cell-based; conditions: SK-BR-3, 72 h
MCF7 [15] = assay: Antiproliferative activity against human MCF7 cells assessed as cell growth inhibition measured after 72 hrs by MTT assay; format: functional, cell-based; conditions: MCF7, 72 h
MCF-10A = assay: Antiproliferative activity against human MCF-10A cells assessed as cell growth inhibition measured after 72 hrs by MTT assay; format: functional, cell-based
[16] = tested on: Human immunodeficiency virus 1; assay: Antiviral activity against NNRTI resistant HIV1 harboring Tyr188Leu mutant infected in human MT4 cells assessed as reduction in virus-induced cytopathic effect measured after 5 days by MTT assay; format: functional, organism-based; conditions: Human immunodeficiency virus 1, MT4, 120 h
[17] = Cytotoxicity against human IM-9 cells assessed as cell growth inhibition; format: toxicity, cell-based
Jurkat [18] = assay: Cytotoxicity against human Jurkat cells assessed as cell growth inhibition; format: functional, cell-based
Daudi = assay: Cytotoxicity against human Daudi cells assessed as cell growth inhibition; format: functional, cell-based
HL-60 = assay: Cytotoxicity against human HL-60 cells assessed as cell growth inhibition; format: functional, cell-based
MCF7 [19] = assay: Cytotoxicity against human MCF7 cells assessed as cell growth inhibition; format: functional, cell-based
DU-145 = assay: Cytotoxicity against human DU-145 cells assessed as cell growth inhibition; format: functional, cell-based
[20] = Cytotoxicity against mouse LL2 cells assessed as cell growth inhibition; format: functional, cell-based; conditions: Lewis lung carcinoma
SK-OV-3 [21] = assay: Cytotoxicity against human SK-OV-3 cells assessed as cell growth inhibition; format: functional, cell-based
[22] = Cytotoxicity against human MHOC-59 cell assessed as cell growth inhibition; format: functional, cell-based
AN3-CA = assay: Cytotoxicity against human AN3-CA cells assessed as cell growth inhibition; format: functional, cell-based
HEC-1-A = assay: Cytotoxicity against human HEC-1-A cells assessed as cell growth inhibition; format: functional, cell-based
K562 = assay: cells; conditions: Homo sapiens
Description: Cytotoxicity against human K562 cells assessed as cell growth inhibition

Jurkat [23] = assay: Cytotoxicity against human Jurkat cells assessed as cell growth inhibition measured after 72 hrs by MTS assay; format: functional, cell-based
[24] = biological target: 5-hydroxytryptamine receptor 2A (Homo sapiens, UniProt P28223); assay: Displacement of […] from human 5-HT2AR expressed in HEK293 cells by radioligand binding assay; format: cell-based
[25] = biological target: 1-acyl-sn-glycerol-3-phosphate acyltransferase beta (Homo sapiens, UniProt O15120); assay: Inhibition of LPAAT-beta (unknown origin) expressed in Xenopus laevis oocytes incubated for 3 mins; format: cell-based, Oocyte
HeLa = assay: Cytotoxicity against human HeLa cells assessed as cell growth inhibition incubated for 96 hrs by WST-8 assay; format: functional, cell-based
[26] = Cytotoxicity against human HCO cell assessed as cell growth inhibition incubated for 96 hrs by WST-8 assay; format: functional, cell-based
HEK293 = assay: Cytotoxicity against HEK293 cells assessed as cell growth inhibition incubated for 96 hrs by WST-8 assay; format: functional, cell-based; conditions: Homo sapiens, HEK293, 96 h
MEF = assay: Cytotoxicity against mouse MEF cells assessed as cell growth inhibition incubated for 96 hrs by WST-8 assay; format: functional, cell-based
SK-OV-3 [27] = assay: Cytotoxicity against human SK-OV-3 cells assessed as cell growth inhibition incubated for 96 hrs by WST-8 assay; format: functional, cell-based; conditions: SK-OV-3, 96 h

Chain of D(2) dopamine receptor (P14416 whole entry): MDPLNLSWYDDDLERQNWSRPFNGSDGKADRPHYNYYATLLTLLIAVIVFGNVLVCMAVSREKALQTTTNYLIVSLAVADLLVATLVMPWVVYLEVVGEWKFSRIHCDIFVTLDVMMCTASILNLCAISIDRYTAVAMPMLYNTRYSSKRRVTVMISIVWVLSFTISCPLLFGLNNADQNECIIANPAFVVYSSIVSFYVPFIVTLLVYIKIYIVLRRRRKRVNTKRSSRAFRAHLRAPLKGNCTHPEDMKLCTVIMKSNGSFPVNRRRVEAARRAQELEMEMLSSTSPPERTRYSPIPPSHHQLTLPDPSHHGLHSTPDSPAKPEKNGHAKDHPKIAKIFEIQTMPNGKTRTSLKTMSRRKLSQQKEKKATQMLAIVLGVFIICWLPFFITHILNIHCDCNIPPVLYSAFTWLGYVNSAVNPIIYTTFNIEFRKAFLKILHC
Chain of 5-hydroxytryptamine receptor 7 (P34969 whole entry): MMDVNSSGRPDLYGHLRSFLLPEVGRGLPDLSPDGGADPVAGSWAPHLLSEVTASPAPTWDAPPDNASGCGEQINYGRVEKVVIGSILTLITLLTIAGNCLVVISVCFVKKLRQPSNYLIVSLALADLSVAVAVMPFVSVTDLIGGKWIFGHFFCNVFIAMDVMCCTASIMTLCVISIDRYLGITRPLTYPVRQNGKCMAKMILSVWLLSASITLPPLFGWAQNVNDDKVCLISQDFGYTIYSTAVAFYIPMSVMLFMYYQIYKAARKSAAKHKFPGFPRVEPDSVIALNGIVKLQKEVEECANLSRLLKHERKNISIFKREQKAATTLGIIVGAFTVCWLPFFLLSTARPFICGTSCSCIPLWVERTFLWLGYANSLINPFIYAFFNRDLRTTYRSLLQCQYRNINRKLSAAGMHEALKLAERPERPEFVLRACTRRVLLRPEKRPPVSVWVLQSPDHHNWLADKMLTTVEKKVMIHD
T1 sequence (O14842 whole entry): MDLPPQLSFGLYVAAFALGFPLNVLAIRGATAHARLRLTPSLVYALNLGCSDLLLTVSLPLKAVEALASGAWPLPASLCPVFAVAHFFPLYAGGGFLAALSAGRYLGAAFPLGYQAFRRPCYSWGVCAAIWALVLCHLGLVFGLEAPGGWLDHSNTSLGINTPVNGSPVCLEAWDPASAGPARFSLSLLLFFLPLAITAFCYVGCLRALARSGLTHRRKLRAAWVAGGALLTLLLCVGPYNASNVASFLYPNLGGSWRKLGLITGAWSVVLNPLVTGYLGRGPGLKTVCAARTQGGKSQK
Chain of 5-hydroxytryptamine receptor 1A (P08908 whole entry): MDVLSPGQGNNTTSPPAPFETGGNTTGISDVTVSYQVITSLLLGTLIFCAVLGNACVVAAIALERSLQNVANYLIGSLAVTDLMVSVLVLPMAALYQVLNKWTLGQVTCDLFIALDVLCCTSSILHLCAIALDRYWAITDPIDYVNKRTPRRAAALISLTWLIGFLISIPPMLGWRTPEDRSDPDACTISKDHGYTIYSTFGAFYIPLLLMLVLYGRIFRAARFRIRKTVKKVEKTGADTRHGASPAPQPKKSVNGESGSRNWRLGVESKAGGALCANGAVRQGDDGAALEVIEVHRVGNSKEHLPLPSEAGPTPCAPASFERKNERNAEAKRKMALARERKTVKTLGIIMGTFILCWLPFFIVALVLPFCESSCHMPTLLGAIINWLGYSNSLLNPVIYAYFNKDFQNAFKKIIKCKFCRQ
Chain of 5-hydroxytryptamine receptor 2A (P28223 whole entry): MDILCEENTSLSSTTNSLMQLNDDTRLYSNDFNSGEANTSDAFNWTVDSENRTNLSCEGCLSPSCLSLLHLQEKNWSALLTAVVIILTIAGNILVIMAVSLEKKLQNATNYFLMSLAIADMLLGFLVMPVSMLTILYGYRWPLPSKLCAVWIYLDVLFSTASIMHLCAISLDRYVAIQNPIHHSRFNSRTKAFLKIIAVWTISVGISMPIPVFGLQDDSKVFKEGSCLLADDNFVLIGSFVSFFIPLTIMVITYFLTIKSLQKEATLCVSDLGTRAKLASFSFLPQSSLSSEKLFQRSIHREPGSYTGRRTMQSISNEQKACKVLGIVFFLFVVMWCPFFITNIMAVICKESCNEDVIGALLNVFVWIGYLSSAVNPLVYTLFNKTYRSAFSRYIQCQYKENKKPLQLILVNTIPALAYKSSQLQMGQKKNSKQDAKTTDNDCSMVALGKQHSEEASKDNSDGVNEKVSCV
Chain of 5-hydroxytryptamine receptor 6 (P50406 whole entry): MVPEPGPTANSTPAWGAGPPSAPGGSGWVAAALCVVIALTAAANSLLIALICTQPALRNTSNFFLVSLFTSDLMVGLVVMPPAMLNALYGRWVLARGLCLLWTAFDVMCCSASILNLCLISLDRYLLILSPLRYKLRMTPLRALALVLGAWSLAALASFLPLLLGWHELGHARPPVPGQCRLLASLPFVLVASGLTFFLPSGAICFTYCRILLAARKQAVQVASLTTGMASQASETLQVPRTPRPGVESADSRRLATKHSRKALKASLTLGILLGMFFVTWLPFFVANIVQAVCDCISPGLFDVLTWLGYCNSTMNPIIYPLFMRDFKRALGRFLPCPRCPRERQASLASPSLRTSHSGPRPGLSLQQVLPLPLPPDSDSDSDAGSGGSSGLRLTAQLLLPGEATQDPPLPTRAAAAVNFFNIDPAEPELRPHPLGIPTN
Chain of 1-acyl-sn-glycerol-3-phosphate acyltransferase beta (O15120 whole entry): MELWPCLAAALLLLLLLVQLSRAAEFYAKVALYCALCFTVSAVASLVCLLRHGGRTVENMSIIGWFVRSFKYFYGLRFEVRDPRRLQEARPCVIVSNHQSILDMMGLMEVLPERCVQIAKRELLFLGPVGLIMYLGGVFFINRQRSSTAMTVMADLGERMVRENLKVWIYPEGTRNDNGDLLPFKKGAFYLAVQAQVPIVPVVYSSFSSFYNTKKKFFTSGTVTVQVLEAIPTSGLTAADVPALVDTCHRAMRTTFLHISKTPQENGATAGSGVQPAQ

Emax [1]: 134%
EC50 [2]: 776 nM
Compound: Cc1ccccc1Nc1nc(N)nc(COc2ccc3c(C)cc(=O)oc3c2)n1

Compound: N#Cc1ccc(Nc2nc(N)nc(Cc3c(Cl)cccc3Cl)n2)cc1
IC50 [3]: 2 nM
IC50 [4]: 293 nM
IC50 [5]: 40 nM
IC50 [6]: 26 nM
IC50 [7]: 200 nM
IC50 [8]: 1 nM
IC50 [9]: 6.3 nM

Compound: CN1CCN(c2nc(N)nc(Cc3c[nH]c4ccccc34)n2)CC1
Ki [10]: 9450 nM
Ki [11]: 16800 nM
Ki (D(2) dopamine receptor): 1950 nM
Kb [12]: 18 nM

IC50 [13]: 2380 nM
IC50 [14]: 570 nM
Compound: Cc1cccc(Nc2nc(N)nc(CN3CCN(c4ccc(F)cc4)CC3)n2)c1

IC50 (MDA-MB-231): 1 nM
IC50 (SK-BR-3): 210 nM
IC50 (MCF7 [15]): > 20000 nM
Compound: COc1cc(-c2nc(N)nc(Nc3ccc(C)cc3)n2)cc(OC)c1OC
IC50 (MCF-10A): > 20000 nM

Compound: N#Cc1ccc(Nc2nc(N)nc(Cc3c(Cl)ccc4[nH]ccc34)n2)cc1
IC50 [3]: 3 nM
IC50 [4]: 1000 nM
IC50 [5]: 63 nM
IC50 [6]: 63 nM
IC50 [7]: 250 nM
IC50 [16]: 1000 nM
IC50 [8]: 3 nM

IC50 (K562): 30 nM
Compound: CCOc1ccc(Cl)cc1-c1nc(N)nc(Nc2ccc(Cl)cc2)n1
IC50 [17]: 20 nM
IC50 (Jurkat [18]): 30 nM
IC50 (Daudi): 10 nM
IC50 (HL-60): 30 nM
IC50 (MCF7 [19]): 50 nM
IC50 (DU-145): 30 nM
IC50 [20]: 20 nM
IC50 (SK-OV-3 [21]): 32 nM
IC50 [22]: 80 nM
IC50 (AN3-CA): 33 nM
IC50 (HEC-1-A): 54 nM

Compound: Cc1cc(C)c(Cc2nc(N)nc(Nc3ccc(C#N)cc3)n2)c(C)c1
IC50 [4]: 82 nM
IC50 [5]: 3 nM
IC50 [7]: 15 nM
IC50 [16]: 45 nM
IC50 [9]: 0.8 nM

Compound: Nc1nc(-c2ccccc2)nc(N2CCc3ccccc3C2)n1
IC50 (Jurkat [23]): 1950 nM

Ki [10]: 2290 nM
Ki [24]: 39 nM
Ki [11]: 610 nM
Ki (D(2) dopamine receptor): 300 nM
Compound: CN1CCN(c2nc(N)nc(C(C)(C)Sc3ccc4ccccc4c3)n2)CC1

IC50 [25]: 8.4 nM
Compound: CCc1c(-c2nc(N)nc(Nc3ccc(C)cc3)n2)oc2ccccc12
IC50 (HeLa): 140 nM
IC50 [26]: 102 nM
IC50 (HEK293): 51 nM
IC50 (MEF): 62 nM
IC50 (SK-OV-3 [27]): 179 nM
